{
  "source": "ChEMBL document CHEMBL3887002",
  "about": "“Biaryl ether sulfonamides and their use as therapeutic agents” (2016)",
  "biological_target": "Sodium channel protein type 9 subunit alpha (Homo sapiens, UniProt Q15858)",
  "sequence (Q15858 whole entry)": "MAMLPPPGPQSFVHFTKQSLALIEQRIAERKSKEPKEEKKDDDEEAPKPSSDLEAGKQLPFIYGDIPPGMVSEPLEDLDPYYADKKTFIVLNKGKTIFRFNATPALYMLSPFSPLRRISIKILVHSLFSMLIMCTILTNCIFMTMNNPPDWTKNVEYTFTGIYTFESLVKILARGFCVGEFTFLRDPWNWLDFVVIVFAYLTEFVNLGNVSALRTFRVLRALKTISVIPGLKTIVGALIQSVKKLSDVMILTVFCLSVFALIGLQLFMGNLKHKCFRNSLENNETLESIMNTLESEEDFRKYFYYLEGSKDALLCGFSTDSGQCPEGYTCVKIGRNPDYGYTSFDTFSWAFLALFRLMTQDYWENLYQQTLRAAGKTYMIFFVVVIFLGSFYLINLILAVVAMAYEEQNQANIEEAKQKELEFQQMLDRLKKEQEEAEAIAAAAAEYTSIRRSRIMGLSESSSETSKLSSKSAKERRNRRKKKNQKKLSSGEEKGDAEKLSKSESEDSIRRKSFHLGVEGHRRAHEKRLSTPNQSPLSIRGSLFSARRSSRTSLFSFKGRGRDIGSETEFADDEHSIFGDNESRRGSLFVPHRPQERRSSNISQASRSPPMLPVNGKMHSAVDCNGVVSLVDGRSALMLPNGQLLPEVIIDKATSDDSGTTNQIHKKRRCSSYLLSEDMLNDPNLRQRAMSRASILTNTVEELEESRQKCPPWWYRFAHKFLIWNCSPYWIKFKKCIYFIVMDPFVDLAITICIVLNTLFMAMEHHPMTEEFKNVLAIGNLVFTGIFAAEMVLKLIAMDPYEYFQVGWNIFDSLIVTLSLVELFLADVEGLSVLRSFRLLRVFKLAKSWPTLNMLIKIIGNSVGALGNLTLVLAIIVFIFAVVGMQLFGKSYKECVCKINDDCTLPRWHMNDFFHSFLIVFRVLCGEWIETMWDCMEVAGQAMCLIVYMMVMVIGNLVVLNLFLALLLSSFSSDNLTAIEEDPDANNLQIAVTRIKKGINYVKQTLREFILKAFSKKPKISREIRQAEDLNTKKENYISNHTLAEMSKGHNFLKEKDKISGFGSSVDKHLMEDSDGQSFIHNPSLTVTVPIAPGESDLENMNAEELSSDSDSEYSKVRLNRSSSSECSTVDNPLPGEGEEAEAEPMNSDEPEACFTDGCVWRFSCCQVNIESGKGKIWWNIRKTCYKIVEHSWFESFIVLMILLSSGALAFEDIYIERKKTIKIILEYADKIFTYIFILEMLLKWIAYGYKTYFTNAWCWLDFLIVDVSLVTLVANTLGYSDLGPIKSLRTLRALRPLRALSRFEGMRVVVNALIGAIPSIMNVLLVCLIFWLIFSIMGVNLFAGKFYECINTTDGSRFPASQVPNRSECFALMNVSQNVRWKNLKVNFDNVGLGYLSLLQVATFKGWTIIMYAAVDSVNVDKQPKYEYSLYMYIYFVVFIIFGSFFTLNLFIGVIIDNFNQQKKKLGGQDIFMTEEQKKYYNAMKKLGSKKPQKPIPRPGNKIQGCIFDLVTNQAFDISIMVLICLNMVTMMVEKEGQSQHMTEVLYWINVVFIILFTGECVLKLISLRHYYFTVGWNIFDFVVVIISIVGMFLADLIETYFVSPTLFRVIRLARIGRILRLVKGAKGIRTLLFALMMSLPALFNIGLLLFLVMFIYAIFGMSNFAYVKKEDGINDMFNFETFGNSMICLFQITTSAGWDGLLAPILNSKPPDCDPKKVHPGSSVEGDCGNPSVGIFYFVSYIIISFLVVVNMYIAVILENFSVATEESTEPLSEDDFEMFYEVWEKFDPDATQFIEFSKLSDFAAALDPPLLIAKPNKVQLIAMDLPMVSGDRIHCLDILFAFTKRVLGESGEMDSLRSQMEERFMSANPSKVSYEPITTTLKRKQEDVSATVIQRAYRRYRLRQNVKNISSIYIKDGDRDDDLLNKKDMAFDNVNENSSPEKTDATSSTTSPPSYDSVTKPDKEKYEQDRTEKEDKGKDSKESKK",
  "assay": "Electrophysiological Assay (In vitro Assay): Patch voltage clamp electrophysiology allows for the direct measurement and quantification of block of voltage-gated sodium channels (Nav's), and allows the determination of the time- and voltage-dependence of block which has been interpreted as differential binding to the resting, open, and inactivated states of the sodium channel (Hille, B., Journal of General Physiology (1977), 69: 497-515).The following patch voltage clamp electrophysiology studies were performed on representative compounds of the invention using human embryonic kidney cells (HEK), permanently transfected with an expression vector containing the full-length cDNA coding for the desired human sodium channel α-subunit, grown in culture media containing 10% FBS, 1% PSG, and 0.5 mg/mL G418 at 37° C. with 5% CO2. […] Nav1.7 and Nav1.5 cDNAs (NM_00297",
  "format": "cell-based, HEK293",
  "data": [
    {"smiles": "O=S(=O)(Nc1ncccc1F)c1cc(F)c(Oc2ccc(Cl)cc2-c2cccc3nccn23)cc1F", "values": [
      {"measurement": "IC50", "value": 23.2, "unit": "nM"}
    ]}
  ]
}
